# Data published in patent US20250002435A1, “ARYLATED FENCHONE DERIVATIVES, COMPOSITIONS COMPRISING THEM, PROCESSES FOR THEIR PREPARATION AND USES THEREOF” (priority 2021, published 2025).
# “And” between values parts separate entries of the source, which are not always exact repeats. Equal values may be shown once.
# Legend:
# [1] = system: zymosan-induced hyperalgesia; assay: von Frey nociceptive filament assay after zymosan (5b, 5d, CBD); format: in vivo, mouse
# Experimental: (§1) Cannabidiol (CBD), a major constituent of Cannabis, resembles fenchone derivatives in structure. It has powerful anti-inflammatory and anti-anxiety properties and therefore it is used as a positive control. […] In accordance with these findings, the anti-nociceptive effect, as determined by the von Frey monofilament assay peaked at 6 h (p<0.01) (FIG. 10C).
# (§2) To induce inflammation, 40 μL of 1.5% (w/v) zymosan A (Sigma) suspended in 0.9% saline was injected into the sub-planter surface of the right hind paw of the mice. Immediately after zymosan injection, fenchone derivative was injected intraperitoneally (i.p.) after the compounds were dissolved in 0.1 mL vehicle containing ethanol:Cremophore:saline at a ratio of 1:1:18. Control mice were injected with the vehicle only. After 2, 6 and 24 hrs, paw swelling and pain perception were measured.
# (§3) The hyperalgesia was evaluated by the paw withdrawal von Frey test at 2, 6, and 24 hrs following injections of zymosan and/or the test compounds. […] In this study, only 1.4-60 g corresponding to 4.17 to 5.88 log of force was used, to test the mouse sensitivity to a mechanical stimulus on the swollen paw. The measurements were performed in a quiet room. Before paw pain measurements, the animals were held for 10 sec. The trained investigator applied the filament to the central area of the hind paw with gradual increasing size. The test consisted of poking the middle of the hind paw to provoke a flexion reflex followed by a clear flinch response after paw withdrawal. Each one of the von Frey filaments was applied for approximately 3-4 s to induce the end-point reflex. The first testing was done by using the force filament of 1.4 g. If there was no withdrawal response, the next higher stimulus was tried. The mechanical threshold force (in grams (g)) was defined as the lowest force imposed by two von Frey monofilaments of various sizes, required to produce a paw retraction. The untreated left hind paw served as a control.
# hCB2R [2] = target: T1, hCB2R (Homo sapiens (Human), UniProt P34972); assay: [35S]GTPγS binding assay, hCB2R CHO cell membranes; format: biochemical; details: for functional activity at hCB2R (agonist / inverse agonist): [35S]GTPγS binding
# T1 sequence (P34972 whole entry): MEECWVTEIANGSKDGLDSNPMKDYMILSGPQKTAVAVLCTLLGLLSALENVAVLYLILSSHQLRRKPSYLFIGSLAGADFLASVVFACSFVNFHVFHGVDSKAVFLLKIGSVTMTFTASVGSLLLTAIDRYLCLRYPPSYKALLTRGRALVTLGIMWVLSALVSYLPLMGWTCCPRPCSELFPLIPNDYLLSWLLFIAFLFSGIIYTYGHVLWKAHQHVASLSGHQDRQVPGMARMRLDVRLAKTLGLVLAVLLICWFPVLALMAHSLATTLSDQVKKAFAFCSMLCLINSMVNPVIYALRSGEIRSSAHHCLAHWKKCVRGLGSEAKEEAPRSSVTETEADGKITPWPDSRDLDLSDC
# Experimental: Functional Characterization.
# The method used for measuring agonist-stimulated binding of [^35S]GTPγS was based on a described protocol. The assays were carried out with GTPγS assay buffer (50 mM Tris HCl (pH 7.4), 0.2 mM EGTA, 9 mM MgCl2, 150 mM NaCl, 1 mg/ml BSA). Briefly, membranes (5 μg protein) were incubated in assay buffer containing 100 μM GDP, 0.05 nM [^35S]GTPγS, test compounds at various concentrations in siliconized glass tubes. Bound ligand was separated from free ligand by vacuum filtration. Nonspecific binding was determined using 10 μM GTPS. Basal binding was assayed in the absence of the ligand and in the presence of GDP.
# [3] = system: zymosan-induced paw swelling; assay: zymosan mouse paw inflammatory pain model, paw swelling, with or without CB2 antagonists; format: in vivo; details: 10 mg/kg AM630 with 1D, 24 h
# Experimental: (§4) To induce inflammation, 40 μL of 1.5% (w/v) zymosan A (Sigma) suspended in 0.9% saline was injected into the sub-planter surface of the right hind paw of the mice. Immediately after zymosan injection, antagonists were injected intraperitoneally (IP) and after 30 minutes, the fenchone derivatives dissolved in 0.1 mL vehicle containing ethanol:Cremophore:saline at a ratio of 1:1:18 were injected. Control mice were injected with the vehicle only. After 2, 6, and 24 hrs, paw swelling, and pain perception were measured.
# as §3, with “Specifically, measurement of Oedema Formation was assessed by monitoring paw swelling via calibrated calipers (0.01 mm), 6 and 24 hrs following injections of zymosan alone and/or the test compounds. Pain hyperalgesia” for “The hyperalgesia”, “at” for “at 2,”, “24 h” for “24 hrs”
# [4] = system: zymosan-induced hyperalgesia; assay: zymosan mouse paw inflammatory pain model, von Frey test, with or without CB2 antagonists; format: in vivo; details: addition of AM630, 24 h
# Experimental: as §4
# as §3, with “Specifically, measurement of Oedema Formation was assessed by monitoring paw swelling via calibrated calipers (0.01 mm), 6 and 24 hrs following injections of zymosan alone and/or the test compounds. Pain hyperalgesia” for “The hyperalgesia”, “at” for “at 2,”, “24 h” for “24 hrs”
# TNFα = assay: serum TNFα ELISA 24 h after zymosan injection; format: in vivo, mouse; details: AM630 added to 1D
# Experimental: Blood was collected 24 h after zymosan injection, and the sera were assayed for TNFα using a mouse TNFα ELISA kit (R&D Systems, Minneapolis, MN, USA), according to the manufacturer's instructions.
# [5] = system: zymosan-induced swelling of hind paw; assay: zymosan-induced hind paw swelling in mice (5b, 5d, CBD); format: in vivo, mouse
# Experimental: as §1, §2
# The paw swelling (thickness) was measured by calibrated calipers (0.01 mm), 2, 6 and 24 hrs following injections of zymosan alone or Fenchone derivatives.
# hCB2R [6] = target: T1, hCB2R; assay: [3H]CP-55,940 competition displacement binding, membranes of CHO-K1 cells expressing human CB2R
# Experimental: (§5) Affinity for Cannabinoid Receptors. The compounds were further characterized using a radioligand binding assay to determine their affinities for CB1R and CB2R based on each test compound's ability to displace the radiolabeled CB1R/CB2R agonist CP-55,940 from membranes prepared from a mouse brain (a source of CB1R) and membranes of cells expressing the human CB2R. […] Therefore, the compounds were assayed using membranes from CHO-K1 cells expressing the human CB2R (hCB2R).
# (§6) Membranes from cells expressing human CB2R were purchased from Charles River, (Cat #A308; Ohio, US). Solutions of test compounds ranging from 0.1 nM to 10 mM were prepared in DMSO. The desired amount of membrane preparation was diluted with ice-cold assay buffer (50 mM Tris-HCl, 2.5 mM EDTA, 5 mM MgCl2, 0.1% BSA, pH 7.4) and was vortexed. […] The assays were incubated for 90 minutes at 30° C. and then immediately filtered on WHATMAN GF/B FilterPaper (Fired) using a Brandel M-24R Harvester followed by six washes with ice cold wash buffer (50 mM Tris-HCl, 2.5 mM EDTA, 5 mM MgCl2, 0.1% BSA, pH 7.4). Radioactivity was detected by adding the FilterPaper directly to the ULTIMA GOLD scintillation cocktail (PerkinElmer), incubation at 20° C. for 60 min and then counted using a Tri-Carb 4910TR liquid scintillation counter.
# mCB1R = mCB1R (Mus musculus (Mouse), UniProt P47746); assay: [3H]CP-55,940 competition displacement binding, crude membranes from mouse brain; details: displacement of [3H]CP-55,940; NB = No binding detected at concentrations up to 10 μM; read-out: Ki (nM) mCB1R
# Chain of mCB1R (P47746 whole entry): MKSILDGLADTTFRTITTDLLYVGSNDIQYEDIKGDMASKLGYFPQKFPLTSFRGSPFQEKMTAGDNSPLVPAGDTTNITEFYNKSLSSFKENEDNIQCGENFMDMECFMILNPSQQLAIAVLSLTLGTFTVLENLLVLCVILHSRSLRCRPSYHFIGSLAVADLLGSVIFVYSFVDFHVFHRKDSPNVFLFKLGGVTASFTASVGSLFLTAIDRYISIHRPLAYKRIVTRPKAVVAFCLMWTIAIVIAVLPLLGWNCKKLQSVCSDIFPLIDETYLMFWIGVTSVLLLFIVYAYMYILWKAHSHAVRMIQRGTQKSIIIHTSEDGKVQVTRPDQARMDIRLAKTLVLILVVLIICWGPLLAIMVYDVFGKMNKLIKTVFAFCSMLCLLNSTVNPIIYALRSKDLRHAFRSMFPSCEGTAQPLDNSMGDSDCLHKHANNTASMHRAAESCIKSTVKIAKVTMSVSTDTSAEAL
# Experimental: as §5, §6
# [7] = system: medial meniscal tear (MMT) post-traumatic OA; assay: rat medial meniscal tear (MMT) model, body weight and dynamic weight bearing; format: in vivo; details: FGF18 60 μg/mL IA
# Experimental: Initially, the required amount of HU308 dissolved in ethanol followed by addition of […] with vigorous mechanical agitation to form viscous micelle solution. Finally, the micelle solution was diluted in ice cold saline for injection or culture assays. Vehicle solution consisted of ethanol, cremophor and saline at 1:1:18 ratio. For intra-articular (IA) dosing 50 μL was injected into the tibiofemoral joint, at two doses; 8 and 24 μg/mL. Vehicle control contained 1:1:18 ethanol/Cremophor/saline, while positive control was of IA administered 60 μg/mL FGF-18 (R&D Systems, catalogue No. 8988-F18-050, lot No. BVE0521071) for IA dosing at 50 μL/knee.
# (§7) The rat OA model employed was surgically-induced medial meniscal tear (MMT), wherein rats were anesthetized with Isoflurane (VetOne, catalogue No. 502017), and the right knee area was prepared for surgery. A skin incision was made over the medial aspect of the knee, and the medial collateral ligament was exposed by blunt dissection and then transected. The medial meniscus was cut through the full thickness to simulate a complete tear. Skin and subcutis were closed with 4-0 Coated Vicryl (polyglactin 910) Violet Braided Suture (Ethicon, catalogue No. J399H), and slight hand pressure was applied to the wound for approximately 3 minutes for hemostasis. Subcutaneous (SC) dose of buprenorphine (0.05 mg/kg) administered after the animal awakened post-surgery. Rats were weighed daily on study days −1 through 7 and again on days 14, 21, and 28 (prior to necropsy). […] The animals were euthanized for necropsy 28 days post-surgery, following Isoflurane anesthesia, and bled to exsanguination followed by bilateral pneumothorax.
# [8] = system: medial meniscal tear (MMT) post-traumatic OA; assay: rat MMT model, histopathology of medial tibial joint 28 days post MMT; format: in vivo; details: FGF18 60 μg/mL IA
# Experimental: as §7
# Right knees were collected from all animals and trimmed of muscle and patellae. The trimmed joints were placed in 10% neutral buffered formalin (NBF) for histologic processing and evaluation. Samples were fixed for 3 days in 4% paraformaldehyde and decalcified for 21 days in 10% EDTA, pH=7.5. Then following dehydration in a graded series of ethanol washes, joints were embedded in paraffin and sectioned to 7 μm slices, following trimming off 1 mm until the tibiofemoral compartments are fully observed. Sections were obtained from each knee and stained with toluidine blue (0.04% in 0.2 M acetate buffer, Ph=4.0), based on a modified version of the methods used in Schmitz, et al. (2010), (11). Histopathology was carried out using an ocular micrometer. The following structural histological characterization was carried out:
# Regional differences across the tibial plateau were taken into consideration by dividing each section into three zones: (1) outside, (2) middle, and (3) inside. In the surgical OA model, the outside (zone-1) and middle (zone-2) thirds are most severely affected, and milder changes are present on the inside third (zone 3). When zones were scored individually, scores were assigned based on percent area of the zone affected. General cartilage degeneration including chondrocyte death/loss, proteoglycan (PG) loss, and collagen loss or fibrillation. Zones were scored individually (0-5; 5 representing sever damage; SD3), and a sum of all three zones was calculated (termed “Total Joint scores”).
# The zone related cartilage depth is calculated from the projected articular surface tot the tidemark. Reduced ratios embody less detected cartilage width vs projected cartilage with area, per zone.
# Osteophyte thickness (tidemark to furthest point extending toward synovium) was measured and scored according to a range from 0-5, as in SD4.
# Damage to the calcified cartilage layer and subchondral bone was scored using the criteria in SD5. Generally damage was considered as invagination of deep zone cartilage into the subchondral bone layer.
# […] Descriptions of other changes (typically fibrosis, or acute inflammation/neutrophil infiltration extending into the lateral compartment usually associated with IA treatments) were also provided, if present.
compound,measurement,setting,value
"CCCCCc1cc(O)c(C2(O)C3(C)CCC(C3)C2(C)C)c(OC)c1 (single isomer, unassigned) [Compound 5b, 2-(2′-hydroxy-6′-methoxy-4′-pentylphenyl)-1,3,3-trimethylbicyclo[2.2.1]heptan-2-ol]",anti-nociceptive effect (von Frey),"[1]; 10 and 25 mg/kg ip, after 6 and 24 h",strong anti-nociceptive effects
same,functional activity at hCB2R (agonist / inverse agonist),hCB2R [2],agonist
"COc1ccc(C(=O)c2c(C)n(CCN3CCOCC3)c3cc(I)ccc23)cc1 [AM630, reference compound]",effect of antagonist on the 1D-reduced swelling,[3],fully inhibited its effect
same,effect of antagonist on the 1D von Frey effect,[4],reversed
same,effect of antagonist on the 1D reduction of TNF-α,TNFα,abolished
"C=C(C)[C@@H]1CCC(C)=C[C@H]1c1c(O)cc(CCCCC)cc1O [CBD, Cannabidiol, reference compound]",time at which the anti-nociceptive effect peaked (von Frey),[1]; CBD positive control,6 h
same,inhibition of inflammation (paw swelling),"[5]; 5 mg/kg ip, 6 h, FIG. 10A",40%
same,inhibition of inflammation (paw swelling),"[5]; 5 mg/kg ip, 24 h, FIG. 10A",43%
same,inhibition of inflammation (paw swelling),"[5]; positive control in the 5d experiment (FIG. 10B), 6 h",58%
same,inhibition of inflammation (paw swelling),"[5]; positive control in the 5d experiment (FIG. 10B), 24 h",78%
"CCCCCCC(C)(C)c1cc(O)c(C2(O)C3(C)CCC(C3)C2(C)C)c(OC)c1 (stereo not shown) [Compound 5d, 2-(2′-hydroxy-6′-methoxy-4′-(2″-methyloctan-2″-yl)phenyl)-1,3,3-trimethyl-bicyclo[2.2.1]heptan-2-ol]",anti-nociceptive effect (von Frey),"[1]; 25 and 50 mg/kg ip, after 6 h",moderate anti-nociceptive effects
same,inhibition of inflammation (paw swelling),"[5]; 25 mg/kg ip, 24 h",55% and 56%
same,inhibition of inflammation (paw swelling),"[5]; 50 mg/kg ip, 2 h",38%
same,inhibition of inflammation (paw swelling),"[5]; 50 mg/kg ip, 6 h",67%
same,inhibition of inflammation (paw swelling),"[5]; 50 mg/kg ip, 24 h",56%
same,Ki,"hCB2R [6]; displacement of [3H]CP-55,940",24.6 nM
same,mCB1R/hCB2R,hCB2R [6]; selectivity index from Ki values,18.4
same,Ki,mCB1R,451 nM
same,functional activity at hCB2R (agonist / inverse agonist),hCB2R [2],agonist
same,EC50,"hCB2R [2]; [35S]GTPγS binding to hCB2R, two independent experiments in triplicate",14.8 nM
same,E(max) %,hCB2R [2]; percentage of HU-308 response at 1 μM,105.05%
"FGF18: positive control, IA administered 60 μg/mL FGF-18 (R&D Systems); anabolic effect to articular cartilage",cumulative area under the curves for dynamic weight bearing (DWB),[7],highest values
same,mean zonal depth ratios,[8],reduced depth ratios
same,zone 3 cartilage degeneration score,[8],no beneficial effect
same,total zonal cartilage degeneration scores,[8]; vs 1D low dose and Vehicle,significantly reduced degenerative scores
same,medial synovial scores,[8]; vs all groups,highest
same,osteophyte measurements and scores,[8]; vs all groups,significantly higher measurements and scores
same,bone damage,[8]; vs the 1D high dose,relatively reduced levels
